Results taken from ChEMBL document CHEMBL1133677, “Carbonic anhydrase and matrix metalloproteinase inhibitors: sulfonylated amino acid hydroxamates with MMP inhibitory properties act as efficient inhibitors of CA isozymes I, II, and IV, and N-hydroxysulfonamides inhibit both these zinc enzymes” (J Med Chem, 2000).

Columns and labels:
Carbonic anhydrase 2 = Carbonic anhydrase 2 (Homo sapiens, UniProt P00918)
Carbonic anhydrase 1 = Carbonic anhydrase 1 (Homo sapiens, UniProt P00915)
Carbonic anhydrase 4 = target: T1, Carbonic anhydrase 4 (Bos taurus, UniProt Q95323)
T1 sequence (Q95323 whole entry): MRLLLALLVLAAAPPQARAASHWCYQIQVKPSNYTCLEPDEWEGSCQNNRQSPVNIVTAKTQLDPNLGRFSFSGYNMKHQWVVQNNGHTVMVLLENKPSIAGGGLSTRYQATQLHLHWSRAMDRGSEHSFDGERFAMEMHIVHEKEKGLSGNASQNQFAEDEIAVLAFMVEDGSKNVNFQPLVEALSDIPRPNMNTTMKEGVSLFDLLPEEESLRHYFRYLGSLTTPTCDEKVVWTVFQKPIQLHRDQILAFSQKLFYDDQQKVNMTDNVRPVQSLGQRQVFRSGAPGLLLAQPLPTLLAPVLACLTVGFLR

Carbonic anhydrase 1, sequence (P00915 whole entry): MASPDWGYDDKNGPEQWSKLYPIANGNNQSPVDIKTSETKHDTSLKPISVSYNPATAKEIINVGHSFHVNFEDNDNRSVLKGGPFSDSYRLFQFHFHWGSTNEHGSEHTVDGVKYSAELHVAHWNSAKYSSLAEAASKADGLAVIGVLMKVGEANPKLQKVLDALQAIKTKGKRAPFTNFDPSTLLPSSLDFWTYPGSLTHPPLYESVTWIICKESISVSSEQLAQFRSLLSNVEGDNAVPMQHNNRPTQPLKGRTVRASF

Ki (Carbonic anhydrase 2) [nM] | Ki (Carbonic anhydrase 1) [nM] | Ki (Carbonic anhydrase 4) [nM] | SMILES
> 200 | > 200 | > 200 | CC(C(=O)NO)N(Cc1ccccc1Cl)S(=O)(=O)c1c(F)c(F)c(F)c(F)c1F (centres undefined)
51 | 68000 | 110 | COc1ccc(S(=O)(=O)NO)cc1
36 | 90 | 42 | O=C(CN(Cc1ccccc1)S(=O)(=O)c1c(F)c(F)c(F)c(F)c1F)NO
170 | > 200 | 140 | COc1ccc(S(=O)(=O)N(CC(=O)NO)Cc2ccccc2[N+](=O)[O-])cc1
107 | 150 | 130 | O=C(CN(Cc1ccc([N+](=O)[O-])cc1)S(=O)(=O)c1c(F)c(F)c(F)c(F)c1F)NO
16 | 21 | 17 | CC(NS(=O)(=O)C(F)(F)C(F)(F)C(F)(F)C(F)(F)F)C(=O)NO (centres undefined)
13 | 15000 | 45 | O=S(=O)(NO)c1ccc(I)cc1
1.1 | 33000 | 16 | O=S(=O)(NO)c1cccc(C(F)(F)F)c1
74 | 127 | 49 | O=C(CN(Cc1ccccc1[N+](=O)[O-])S(=O)(=O)c1c(F)c(F)c(F)c(F)c1F)NO
44 | 41000 | 136 | COc1ccc(S(=O)(=O)NO)cc1N
21 | 27000 | 120 | O=S(=O)(NO)c1ccc(Cl)cc1
5 | 50 | 39 | COc1ccc(S(=O)(=O)NC(CC(C)C)C(=O)NO)cc1 (centres undefined)
92 | 121 | 107 | CC(C(=O)NO)N(Cc1ccccc1)S(=O)(=O)C(F)(F)C(F)(F)C(F)(F)C(F)(F)F (centres undefined)
118 | > 200 | 136 | O=C(CN(Cc1ccc([N+](=O)[O-])cc1)S(=O)(=O)C(F)(F)C(F)(F)C(F)(F)C(F)(F)F)NO
0.9 | 25000 | 12 | O=C(O)c1ccccc1S(=O)(=O)NO
> 200 | > 200 | 185 | COc1ccc(S(=O)(=O)N(Cc2ccccc2)C(C(=O)NO)C(C)C)cc1 (centres undefined)
15 | 18 | 16 | O=C(CNS(=O)(=O)C(F)(F)C(F)(F)C(F)(F)C(F)(F)F)NO
85 | 105 | 100 | O=C(CN(Cc1ccccc1)S(=O)(=O)C(F)(F)C(F)(F)C(F)(F)C(F)(F)F)NO
26 | 18000 | 74 | O=S(=O)(NO)c1ccccc1
4.7 | – | 56 | CS(=O)(=O)NO
39 | 33 | 38 | COc1ccc(S(=O)(=O)NC(C(=O)NO)C(C)C)cc1 (centres undefined)

Ki (Carbonic anhydrase 2) [nM] | Ki (Carbonic anhydrase 1) [nM] | Ki (Carbonic anhydrase 4) [nM] | SMILES
> 200 | > 200 | > 200 | COc1ccc(S(=O)(=O)N(Cc2ccc([N+](=O)[O-])cc2)C(C)C(=O)NO)cc1 (centres undefined)
> 200 | > 200 | > 200 | CC(C(=O)NO)N(Cc1ccccc1Cl)S(=O)(=O)C(F)(F)C(F)(F)C(F)(F)C(F)(F)F (centres undefined)
8 | 7 | 10 | O=C(CNS(=O)(=O)c1c(F)c(F)c(F)c(F)c1F)NO
70 | 51000 | 127 | Cc1ccc(S(=O)(=O)NO)cc1
> 200 | > 200 | 190 | COc1ccc(S(=O)(=O)N(Cc2ccccc2)C(CC(C)C)C(=O)NO)cc1 (centres undefined)
15 | 29 | 20 | CC(C)C(NS(=O)(=O)C(F)(F)C(F)(F)C(F)(F)C(F)(F)F)C(=O)NO (centres undefined)
32 | 30 | 29 | COc1ccc(S(=O)(=O)NCC(=O)NO)cc1
37 | 62000 | 55 | Nc1ccc(S(=O)(=O)NO)cc1
9 | 57000 | 70 | O=[N+]([O-])c1ccc(S(=O)(=O)NO)cc1
30 | 20000 | 16 | O=S(=O)(NO)C(F)(F)F
4 | 17000 | 12 | O=[N+]([O-])c1ccc(S(=O)(=O)NO)cc1Cl
5 | 17000 | 24 | O=[N+]([O-])c1cccc(S(=O)(=O)NO)c1
> 200 | > 200 | > 200 | CC(C(=O)NO)N(Cc1ccc([N+](=O)[O-])cc1)S(=O)(=O)c1c(F)c(F)c(F)c(F)c1F (centres undefined)
15 | 1800 | 27 | O=S(=O)(NO)C(F)(F)C(F)(F)C(F)(F)C(F)(F)F
108 | 140 | 124 | CC(C)C(C(=O)NO)N(Cc1ccccc1)S(=O)(=O)C(F)(F)C(F)(F)C(F)(F)C(F)(F)F (centres undefined)
> 200 | > 200 | > 200 | COc1ccc(S(=O)(=O)N(Cc2ccccc2[N+](=O)[O-])C(C)C(=O)NO)cc1 (centres undefined)
5 | 15000 | 13 | O=[N+]([O-])c1ccccc1S(=O)(=O)NO
11 | 8 | 13 | CC(C)C(NS(=O)(=O)c1c(F)c(F)c(F)c(F)c1F)C(=O)NO (centres undefined)
> 200 | > 200 | > 200 | COc1ccc(S(=O)(=O)N(Cc2ccccc2Cl)C(C)C(=O)NO)cc1 (centres undefined)
8 | 7 | 10 | CC(NS(=O)(=O)c1c(F)c(F)c(F)c(F)c1F)C(=O)NO (centres undefined)
9 | 1600 | 21 | O=S(=O)(NO)C(F)(F)C(F)(F)C(F)(F)C(F)(F)C(F)(F)C(F)(F)C(F)(F)C(F)(F)F

Ki (Carbonic anhydrase 2) [nM] | Ki (Carbonic anhydrase 1) [nM] | Ki (Carbonic anhydrase 4) [nM] | SMILES
35 | 32 | 30 | COc1ccc(S(=O)(=O)NC(C)C(=O)NO)cc1 (centres undefined)
190 | 19000 | 460 | O=S(=O)(Cc1ccccc1)NO
120 | 195 | 136 | COc1ccc(S(=O)(=O)N(Cc2ccccc2)C(C)C(=O)NO)cc1 (centres undefined)
160 | > 200 | > 200 | CC(C(=O)NO)N(Cc1ccccc1[N+](=O)[O-])S(=O)(=O)c1c(F)c(F)c(F)c(F)c1F (centres undefined)
> 200 | > 200 | > 200 | CC(C(=O)NO)N(Cc1ccccc1[N+](=O)[O-])S(=O)(=O)C(F)(F)C(F)(F)C(F)(F)C(F)(F)F (centres undefined)
120 | > 200 | 145 | COc1ccc(S(=O)(=O)N(CC(=O)NO)Cc2ccccc2)cc1
29 | 40000 | 40 | CC(=O)Nc1ccc(S(=O)(=O)NO)cc1
62 | 72000 | 156 | Cc1cc(C)c(S(=O)(=O)NO)c(C)c1
18 | 38000 | 39 | O=S(=O)(NO)c1ccc(Br)cc1
116 | 180 | 139 | CC(C)CC(C(=O)NO)N(Cc1ccccc1)S(=O)(=O)C(F)(F)C(F)(F)C(F)(F)C(F)(F)F (centres undefined)
38 | 84 | 43 | CC(C(=O)NO)N(Cc1ccccc1)S(=O)(=O)c1c(F)c(F)c(F)c(F)c1F (centres undefined)
0.8 | 30000 | 13 | O=S(=O)(NO)c1c(F)c(F)c(F)c(F)c1F
11 | 10 | 19 | CC(C)CC(NS(=O)(=O)c1c(F)c(F)c(F)c(F)c1F)C(=O)NO (centres undefined)
18 | – | 30 | CC(C)CC(NS(=O)(=O)C(F)(F)C(F)(F)C(F)(F)C(F)(F)F)C(=O)NO (centres undefined)
40 | 12000 | 290 | CN(C)S(=O)(=O)NO
56 | 100 | 75 | CC(C)CC(C(=O)NO)N(Cc1ccccc1)S(=O)(=O)c1c(F)c(F)c(F)c(F)c1F (centres undefined)
> 200 | > 200 | > 200 | CC(C(=O)NO)N(Cc1ccc([N+](=O)[O-])cc1)S(=O)(=O)C(F)(F)C(F)(F)C(F)(F)C(F)(F)F (centres undefined)
19 | 15000 | 90 | O=S(=O)(NO)c1ccc(F)cc1
45 | 88 | 48 | CC(C)C(C(=O)NO)N(Cc1ccccc1)S(=O)(=O)c1c(F)c(F)c(F)c(F)c1F (centres undefined)

SMILES | Ki (Carbonic anhydrase 2) [nM] | Ki (Carbonic anhydrase 1) [nM] | Ki (Carbonic anhydrase 4) [nM]
O=S(=O)(NO)C(Cl)(Cl)Cl | 150 | 23000 | 210
